Measured values as given in patent publication US3996263A, “9-Oxo-11α-methyl-15.EPSILON.-hyroxyprost-13(trans)-enoic acid derivatives and process for the preparaion thereof” (priority 1975, dated 1976).
Blank lines part the entries; values can stand above or below the compound they belong to.

Columns and labels:
[1] = test system: indomethacin-induced gastric ulceration in rats; assay: Inhibition of indomethacin-induced gastric ulceration by prostaglandins, rats; type: in vivo, Sprague-Dawley strain male rats; settings: for Inhibitory ratio (%): 5 hours; for ED50: Rattus norvegicus, po, 5 h, p.o., indomethacin 30 mg/kg i.p., read-out: ED50 (50% inhibition of the ulcer formation)
Method: The method employed for the production and evaluation of indomethacin-induced ulcers was essentially same as described by Lee, Mollison and Cheng in Archives Internationales de Pharmacodynamie et de Therapie, vol. 191, page 370 - 377 and by Lippmann in Prostaglandins, vol. 7, page 1 - 10. Sprague-Dawley strain male rats weighing 200 - 220 g were fasted 20 hours with free access to water until the start of experiment. Indomethacin was suspended in 0.4% Tween 80 (surface active agent, product of Atlas Powder Co. U.S.A.) solution and given intraperitoneally into the rats at a dose of 30 mg/kg body weight. The test drugs were dissolved in physiological saline with aid of an ultrasonicator and administered perorally immidiately after the administration of indomethacin. The animals were killed 5 hours later and the ulcer formation in the glandular portion of the stomach was determined.

[2] = test system: stress-induced ulceration in rats; assay: Inhibition of the stress-induced ulceration by prostaglandins, rats; type: in vivo, Donryu strain male rats; settings: for Inhibitory ratio (%): stress 8 hr at 23° C; for anti-stress ulcer potency relative to Compound C / anti-stress ulcer activity compared with PGE1 / anti-stress ulcer activity compared with PGE2: oral; for anti-stress ulcer potency relative to Compound C: versus Compound C; for anti-stress ulcer activity compared with PGE1: versus PGE1; for anti-stress ulcer activity compared with PGE2: versus PGE2
Method: The method employed for the production and evaluation of stress ulcer was essentially same as described by Takagi and Okabe in Journal of Pharmacology vol. 18, pages 9-18 (Japan). Donryu strain male rats, 200 - 230 g in weight, were used. Animals were placed in the stress cage and immersed in a water bath kept at 23° C for 8 hr to the height of the xiphoid of the animal. At the end of the stress, the animals were killed by a blow, and stomach was removed, inflated with 10 ml of 1% formalin solution and placed into 1% formalin solution. Thereafter the stomach was cut along the greater curvature and examined for lesions macroscopically. The ulcer index was calculated as the sum of the length of each lesion in the stomach. Inhibitory ratio of ulceration was calculated for each dose. The test drugs were dissolved into 0.4% Tween 80 solution with aid of an ultrasonicator and administered orally (0.2 ml/100 g) immediately before the stress.

gastric secretion = settings: German Patent Offenlegungsschrift 2,313,868; cited from earlier work
[3] = cited from earlier work
intestinal tube = settings: stated for prior prostaglandins; cited from earlier work
diarrheal activity = type: in vivo; settings: in words
vasodepressor activity = type: in vivo; settings: in words
[4] = stated for prior prostaglandins; cited from earlier work

Structure (SMILES): CCCCC(C)(C)[C@H](O)/C=C/[C@H]1[C@H](C)CC(=O)[C@@H]1CCCCCCC(=O)O (relative stereo) [Compound A, 9-Oxo-11α,16,16-trimethyl-15α-hydroxyprost-13(trans)-enoic acid]
Inhibitory ratio (%) ([1]; 0.25 mg/kg p.o.): 63% | Inhibitory ratio (%) ([1]; 0.50 mg/kg p.o.): 71% | ED50 [1]: 0.16 mg/kg | Inhibitory ratio (%) ([2]; 0.3 mg/kg p.o.): 12% | Inhibitory ratio (%) ([2]; 1.0 mg/kg p.o.): 73% | anti-stress ulcer potency relative to Compound C [2]: more than 10 times | anti-stress ulcer activity compared with PGE1 [2]: significantly more potent than that of PGE1 | anti-stress ulcer activity compared with PGE2 [2]: equally potent as or slightly more potent than that of PGE2

Structure (SMILES): CCCCC(C)(C)[C@H](O)/C=C/[C@H]1[C@H](C)CC(=O)[C@@H]1CCCCCCC(=O)OC (relative stereo) [Compound B, Methyl 9-oxo-11α,16,16-trimethyl-15α-hydroxyprost-13(trans)-enoate]
Inhibitory ratio (%) ([1]; 0.25 mg/kg p.o.): 49% | Inhibitory ratio (%) ([1]; 0.50 mg/kg p.o.): 67% | ED50 [1]: 0.26 mg/kg | Inhibitory ratio (%) ([2]; 0.3 mg/kg p.o.): 11% | Inhibitory ratio (%) ([2]; 1.0 mg/kg p.o.): 92% | anti-stress ulcer potency relative to Compound C [2]: more than 10 times | anti-stress ulcer activity compared with PGE1 [2]: significantly more potent than that of PGE1 | anti-stress ulcer activity compared with PGE2 [2]: equally potent as or slightly more potent than that of PGE2

Structure (SMILES): CCCCC[C@H](O)/C=C/[C@H]1[C@H](C)CC(=O)[C@@H]1CCCCCCC(=O)O (relative stereo) [Compound C, 9-Oxo-11α-methyl-15α-hydroxyprost-13(trans)-enoic acid]
Inhibitory ratio (%) ([1]; 1.25 mg/kg p.o.): 52% | Inhibitory ratio (%) ([1]; 2.5 mg/kg p.o.): 68% | ED50 [1]: 1.18 mg/kg | Inhibitory ratio (%) ([2]; 5.0 mg/kg p.o.): 9% | Inhibitory ratio (%) ([2]; 10 mg/kg p.o.): 40%

Structure (SMILES): CCCCC[C@H](O)/C=C/[C@H]1[C@@H](C)CC(=O)[C@@H]1CCCCCCC(=O)O (relative stereo) [Compound D, 9-Oxo-11β-methyl-15α-hydroxyprost-13(trans)-enoic acid, reference compound]
Inhibitory ratio (%) ([1]; 1.25 mg/kg p.o.): 43% | Inhibitory ratio (%) ([1]; 2.5 mg/kg p.o.): 61% | ED50 [1]: 1.64 mg/kg

Structure (SMILES): CCCCCC(O)/C=C/C1C(C)CC(=O)C1CCCCCCC(=O)O (stereo not drawn) [9-oxo-11β-methyl-15α(or β)-hydroxyprost-13(trans)-enoic acid]
inhibition of gastric secretion (gastric secretion): inhibit gastric secretion | anti-ulcerogenic activity compared with prostaglandins E1 and E2 ([3]; versus prostaglandins E1 and E2): extremely lower than that of prostaglandins E1 and E2

Structure (SMILES): CCCCC[C@H](O)/C=C/[C@H]1[C@H](O)CC(=O)[C@@H]1CCCCCCC(=O)O [PGE1]
intestinal tube-contracting activity (intestinal tube): potent hypotensive and intestinal tube-contracting activities

vasodepressor activity (vasodepressor activity): vasode-pressor activity
Structure (SMILES): CCCCC[C@H](O)/C=C/[C@H]1[C@H](O)CC(=O)[C@@H]1C/C=C\CCCC(=O)O [PGE2, reference compound]
Inhibitory ratio (%) ([1]; 0.05 mg/kg p.o.): 57% | Inhibitory ratio (%) ([1]; 0.25 mg/kg p.o.): 79% | potency relative to compound A in inhibition of the indomethacin-induced ulcer formation ([1]; PGE2 versus compound A): approximately 5 times | ED50 [1]: 0.03 mg/kg | Inhibitory ratio (%) ([2]; 0.3 mg/kg p.o.): 17% | Inhibitory ratio (%) ([2]; 1.0 mg/kg p.o.): 60% | diarrhea (side effect) (diarrheal activity): exhibits various side effects including diarrhea | hypotensive activity [4]: potent hypotensive | intestinal tube-contracting activity (intestinal tube): potent hypotensive and intestinal tube-contracting activities | anti-ulcerogenic effects ([3]; U.S. Pat. No. 3,781,429, Prostaglandins 1974, 6, 523-532): anti-ulcerogenic effects
